Measurements from patent US20230136878A1, “CARDIOMYOCYTE PURIFICATION METHOD” (ORIZURU THERAPEUTICS, INC., priority 2020, published 2023).

How the values were obtained:
[1] = test system: sarcomeric α-actinin-positive cells (cardiomyocytes) in cell population induced to differentiate from human iPS cells; assay: Cardiac muscle marker-positive cell rate (cardiomyocyte rate) measurement by flow cytometry after compound treatment of embryoid bodies; settings: for cardiomyocyte rate (Actinin-positive cell rate) as compared with no treatment with compound: Experimental Example 1, FIG. 4, compounds added day 8 and 10, measured day 13, AMG337 2 μM, ASP5878 0.02/0.05/0.12 μM, BGJ398 0.2/1 μM; for cardiomyocyte rate (sarcomeric α-actinin-positive cell rate) as compared with no treatment: Experimental Example 4, FIG. 8, Foretinib 0.5 μM added day 8, 10, 13
Experimental: VEGF was not added after Day 8.
(§1) On day 8 of differentiation induction, the embryoid bodies were collected in one centrifugal tube, allowed to stand at room temperature for several minutes to cause sedimentation of the embryoid bodies. The supernatant was removed with an aspirator, and a medium was added to replace the medium. The embryoid body suspension was transferred to a 6-well plate, and a 1/100 amount of an evaluation compound (compounds and concentrations of Experiment Nos. 2 to 8 shown in Table 1 below) was added at a concentration of 100 times the final concentration to each well. The plate was stirred to perform cell culture.
(§2) On day 10 of differentiation induction, the 6-well plate was stood for several minutes while tilting to allow embryoid bodies to form sediments. The supernatant was removed with an aspirator, and a medium was added to replace the medium in each well. […] On day 13 of differentiation induction, the 6-well plate was tilted to allow embryoid bodies to form sediments, and the embryoid bodies were transferred to a 1.5 mL tube with a pipette provided with a chip for wide-diameter 1 mL pipette. Dissociation into single cells was performed according to the staining of non-cardiomyocytes by cell surface marker, and a single cell suspension was used for the cardiomyocyte marker-positive cell rate measurement, and non-cardiomyocyte marker-positive cell rate measurement.
The above-mentioned single cell suspension was dispensed to a 1.5 mL tube, centrifuged at 400 g for 3 min, and the supernatant was removed. Cell pellets were resuspended in Cytofix/Cytoperm Fixation/Permeabilization Solution (BD), and fixed by allowing to stand at room temperature for 15 min. To each tube was added 1×Perm/Wash Buffer (1 mL), and the mixture was centrifuged at 1500 g for 3 min, and the supernatant was removed to wash the cells. After tapping the cell pellets, 1×Perm/Wash Buffer (1 mL) was added, and a similar operation was performed to wash the cells. After tapping the cell pellets, the cell pellets were stained with fluorescence dye Alexa647 using an anti-sarcomeric α-actinin antibody in 1×Perm/Wash Buffer containing 1% BSA, and DNA staining was further performed using DAPI (4′,6-Diamidino-2-phenylindole Dihydrochloride). The Sarcomeric α-actinin-positive cell rate was analyzed by measuring the fluorescence signal amount of Alexa647 in the cell population excluding dead cells (cells with DNA amount of Sub-G1) by using a flow cytometer.

[2] = test system: cells positive to any of CD326, CD31, CD49a (non-cardiomyocytes: END, EC, SMC) in cell population induced to differentiate from human iPS cells; assay: Non-cardiomyocyte marker-positive cell rate (non-cardiomyocyte rate) measurement by flow cytometry after compound treatment of embryoid bodies
Experimental: After tapping the cell pellets, PBS containing 1% BSA was added by 1 mL, and the mixture was centrifuged at 300×g for 3 min. The supernatant was removed. The cells were stained with APCFire750-labeled anti-CD326 antibody, PE-labeled anti-CD49a antibody, BV605-labeled anti-CD31 antibody, and DAPI in PBS containing 1% BSA. DAPI-positive dead cells were removed, and the separation of cell population and the ratio of each cell population were measured by measuring the signal amount of each fluorescence dye in nuclear cells.
as §1, §2
Using an unfrozen single cell suspension, the staining, measurement, and analysis were performed according to the staining of non-cardiomyocytes by cell surface marker.

[3] = test system: cell population induced to differentiate into cardiomyocytes from human iPS cells; assay: Recovered cell count measurement (cell counter NC-200) after compound treatment of embryoid bodies; assay type: cell-based
Experimental: The above-mentioned single cell suspension was 5-fold diluted by adding to IMDM medium prepared in a 1.5 mL tube, and mixed by inversion, and the cell count was measured with a cell counter NC-200 (Chemometec).

[4] = iPS line from PBMC LP_167, compound A 0.5 μM
[5] = Experimental Example 1, FIG. 5, iPS line from PBMC LP_167, compounds added day 8 and 10, measured day 13, compound A 0.5 μM, AMG337 2 μM, ASP5878 0.02/0.05/0.12 μM, BGJ398 0.2/1 μM
[6] = Experimental Example 7, FIG. 15, clinical iPS cell line produced by CiRA, added day 8, 10, 13, measured day 17, compound A 0.5 μM, Foretinib 2/0.5 μM, ZM323881 2 μM, CP-673451 1/0.3 μM, Crizotinib 2/0.5 μM
[7] = Experimental Example 7, FIG. 16, clinical iPS cell line produced by CiRA, added day 8, 10, 13, measured day 17, compound A 0.5 μM, Foretinib 2/0.5 μM, ZM323881 2 μM, CP-673451 1/0.3 μM, Crizotinib 2/0.5 μM
[8] = Experimental Example 5, FIG. 10, n=4, iPS line from PBMC LP_140, Crenolanib 1 μM, compound B 2 μM added day 8, 10, 13, ASP5878 0.02 μM added day 8 and 10, measured day 16
[9] = Experimental Example 3, FIG. 7, iPS line from PBMC LP_140, added day 8, 10, 13, measured day 17, compound A 0.5 μM, Foretinib 2 μM, ZM323881 2 μM, Crenolanib 1 μM, Crizotinib 2 μM
[10] = Experimental Example 9, FIG. 19, clinical iPS cell line produced by CiRA, Foretinib 0.5 μM, Crizotinib 2 μM added day 8, 10, 13, measured day 17
[11] = Experimental Example 9, FIG. 20, n=4, clinical iPS cell line produced by CiRA, Foretinib 0.5 μM, Crizotinib 2 μM added day 8, 10, 13, measured day 17
[12] = iPS line from PBMC LP_140, compound A 0.5 μM, measured day 17

Structure (SMILES): COCCOc1cnc2ccn([C@H](C)c3nnc4c(F)cc(-c5cnn(C)c5)cn34)c(=O)c2c1 [AMG337]
- cardiomyocyte rate (Actinin-positive cell rate) as compared with no treatment with compound [1, 4]: increased
- non-cardiomyocyte rate (rate of cells positive to any of CD326, CD31, CD49a) as compared with no treatment with compound [2, 5]: decreased

Structure (SMILES): CCN1CCN(c2ccc(Nc3cc(N(C)C(=O)Nc4c(Cl)c(OC)cc(OC)c4Cl)ncn3)cc2)CC1 [BGJ398]
- cardiomyocyte rate (Actinin-positive cell rate) as compared with no treatment with compound [1, 4]: increased
- non-cardiomyocyte rate (rate of cells positive to any of CD326, CD31, CD49a) as compared with no treatment with compound [2, 5]: decreased

Structure (SMILES): COCCOc1ccc2c(c1)ncn2-c1ccc2cccc(N3CCC(N)CC3)c2n1 [CP-673451]
- cardiomyocyte rate (sarcomeric α-actinin-positive cell rate) as compared with no treatment with compound [1, 6]: increased
- non-cardiomyocyte rate as compared with no treatment with compound [2, 7]: decreased

Structure (SMILES): CC1(COc2ccc3c(c2)ncn3-c2ccc3cccc(N4CCC(N)CC4)c3n2)COC1 [Crenolanib]
- cardiomyocyte rate (sarcomeric α-actinin-positive cell rate) as compared with no treatment with compound [1, 8]: increased
- cardiomyocyte rate (sarcomeric α-actinin-positive cell rate) ([1]; Experimental Example 8, FIG. 17, clinical iPS cell line produced by CiRA, Crenolanib 0.2 or 1 μM, start of addition day 8, 10 or 13 (Table 8), measured day 23): increased
- non-cardiomyocyte rate (rate of cells positive to any of CD326, CD31, CD49a) as compared with no treatment with compound [2, 9]: decreased
- non-cardiomyocyte rate ([2]; Experimental Example 8, FIG. 18, clinical iPS cell line produced by CiRA, Crenolanib 0.2 or 1 μM, start of addition day 8, 10 or 13 (Table 8), measured day 23): decreased

Structure (SMILES): C[C@@H](Oc1cc(-c2cnn(C3CCNCC3)c2)cnc1N)c1c(Cl)ccc(F)c1Cl [Crizotinib]
- number of cells recovered as compared with no treatment with compound ([3]; Experimental Example 9, FIG. 21, n=4, clinical iPS cell line produced by CiRA, Crizotinib 2 μM added day 8, 10, 13, day 17): About 80%
- cardiomyocyte rate (sarcomeric α-actinin-positive cell rate) as compared with no treatment with compound [1, 6]: increased
- cardiomyocyte rate (sarcomeric α-actinin-positive cell rate) as compared with no treatment with compound [1, 10]: increased
- non-cardiomyocyte rate (rate of cells positive to any of CD326, CD31, CD49a) as compared with no treatment with compound [2, 9]: decreased
- non-cardiomyocyte rate as compared with no treatment with compound [2, 7]: decreased
- non-cardiomyocyte rate as compared with no treatment with compound [2, 11]: decreased

Structure (SMILES): COc1cc2c(Oc3ccc(NC(=O)C4(C(=O)Nc5ccc(F)cc5)CC4)cc3F)ccnc2cc1OCCCN1CCOCC1 [Foretinib]
- number of cells recovered as compared with no treatment ([3]; Experimental Example 4, FIG. 9, iPS line from PBMC LP_140, Foretinib 0.5 μM added day 8, 10, 13, day 17): about 70%
- number of cells recovered as compared with no treatment with compound (in words) ([3]; Experimental Example 9, FIG. 21, n=4, clinical iPS cell line produced by CiRA, Foretinib 0.5 μM added day 8, 10, 13, day 17): almost the same number of cells was recovered
- cardiomyocyte rate (sarcomeric α-actinin-positive cell rate) as compared with no treatment with compound ([1]; Experimental Example 2, FIG. 6, n=4, iPS line from PBMC LP_167, Foretinib 2 μM added day 8, 10, 13, ASP5878 0.02 μM added day 8 and 10, measured day 16): increased
- cardiomyocyte rate (sarcomeric α-actinin-positive cell rate) as compared with no treatment [1, 12]: increased
- cardiomyocyte rate (sarcomeric α-actinin-positive cell rate) as compared with no treatment with compound [1, 6]: increased
- cardiomyocyte rate (sarcomeric α-actinin-positive cell rate) as compared with no treatment with compound [1, 10]: increased
- non-cardiomyocyte rate (rate of cells positive to any of CD326, CD31, CD49a) as compared with no treatment with compound [2, 9]: decreased
- non-cardiomyocyte rate as compared with no treatment with compound [2, 7]: decreased
- non-cardiomyocyte rate as compared with no treatment with compound [2, 11]: decreased

Structure (SMILES): Cc1cc(F)c(Nc2ncnc3cc(OCc4ccccc4)ccc23)cc1O [ZM323881]
- cardiomyocyte rate (sarcomeric α-actinin-positive cell rate) as compared with no treatment with compound [1, 6]: increased
- non-cardiomyocyte rate (rate of cells positive to any of CD326, CD31, CD49a) as compared with no treatment with compound [2, 9]: decreased
- non-cardiomyocyte rate as compared with no treatment with compound [2, 7]: decreased

Structure (SMILES): Cc1cc(C(=O)Nc2cc(Oc3ccc4nc(NC(=O)C5CC5)cn4n3)ccc2C)n(C)n1 [compound A, N-[5-({2-[(cyclopropanecarbonyl)amino]imidazo[1,2-b]pyridazin-6-yl}oxy)-2-methylphenyl]-1,3-dimethyl-1H-pyrazole-5-carboxamide]
- number of cells recovered as compared with no treatment (in words) ([3]; Experimental Example 4, FIG. 9, iPS line from PBMC LP_140, compound A 0.5 μM added day 8, 10, 13, day 17): almost the same number of cells was recovered
- number of recovered cells depending on the presence or absence of the compound treatment ([3]; Experimental Example 6, FIG. 14, n=4, clinical iPS cell line produced by CiRA, compound A 0.2 μM added day 14, 17, 21): did not change much
- cardiomyocyte rate (Actinin-positive cell rate) as compared with no treatment with compound [1, 4]: increased
- cardiomyocyte rate (sarcomeric α-actinin-positive cell rate) as compared with no treatment [1, 12]: increased
- cardiomyocyte rate as compared with no treatment with compound ([1]; Experimental Example 6, FIG. 12, n=4, clinical iPS cell line produced by CiRA, compound A 0.2 μM added day 14, 17, 21): increased
- cardiomyocyte rate (sarcomeric α-actinin-positive cell rate) as compared with no treatment with compound [1, 6]: increased
- non-cardiomyocyte rate (rate of cells positive to any of CD326, CD31, CD49a) as compared with no treatment with compound [2, 5]: decreased
- non-cardiomyocyte rate (rate of cells positive to any of CD326, CD31, CD49a) as compared with no treatment with compound [2, 9]: decreased
- non-cardiomyocyte rate as compared with no treatment with compound ([2]; Experimental Example 6, FIG. 13, n=4, clinical iPS cell line produced by CiRA, compound A 0.2 μM added day 14, 17, 21): decreased
- non-cardiomyocyte rate as compared with no treatment with compound [2, 7]: decreased

Structure (SMILES): COc1cc2nccc(Oc3ccc(NC(=O)C4(C(=O)Nc5ccc(F)cc5)CC4)cc3F)c2cc1OC [compound B, N-{4-[(6,7-dimethoxyquinolin-4-yl)oxy]-3-fluorophenyl}-N′-(4-fluorophenyl)cyclopropane-1,1-dicarboxamide]
- cardiomyocyte rate (sarcomeric α-actinin-positive cell rate) as compared with no treatment with compound [1, 8]: increased
